# Laboratory results published in patent US20240238361A1, “METHODS OF TREATING FIBROSIS AND HYPOXIA-ASSOCIATED DAMAGE TO PERIPHERAL NERVES” (Temple Therapeutics BV, priority 2021, published 2024).
# “Also recorded” adds a separate entry of the source. Where a SMILES comes first, the peptide text is derived from it.
# Assays:
# [1] = room temperature; cited from earlier work
# [2] = test system: hypoxic primary rat fibroblasts; test: Phosphoproteomics (LC-MS/MS) and pathway analysis under chronic hypoxia; type: cell-based; conditions: vs untreated chronic hypoxic samples
# Procedure: (§1) In order to mimic the hypoxic micro-environment, primary rat fibroblasts were exposed to hypoxia. Cells were exposed to 2 separate conditions—continuous and episodic hypoxia. For continuous hypoxia, cells were incubated in a hypoxic chamber (2% 02) for 48 h and treated with or without L-alanyl-L-glutamine and no restoration to normoxia as shown in FIG. 1C. Cells were collected and processed for experiments subsequently.
# Following fibroblast isolation from sciatic nerves of rats, (8E10 primary fibroblasts) were lysed in 80 ul of 8M Urea, 0.1M ammonium bicarbonate, phosphatase inhibitors (Sigma P5726&P0044) by sonication (Bioruptor, 10 cycles, 30 seconds on/off, Diagenode, Belgium) and proteins were digested as described previously (PMID:27345528). Shortly, proteins were reduced with 5 mM TCEP for 60 min at 37° C. and alkylated with 10 mM chloroacetamide for 30 min at 37° C. After diluting samples with 100 mM ammonium bicarbonate buffer to a final urea concentration of 1.6M, proteins were digested by incubation with sequencing-grade modified trypsin (1/50, w/w; Promega, Madison, Wisconsin) for 12 h at 37° C. After acidification using 5% TFA, peptides were desalted using C18 reverse-phase spin columns (Macrospin, Harvard Apparatus) according to the manufacturer's instructions, dried under vacuum and stored at −20° C. until further use. […]
# [3] = test system: hypoxic primary rat fibroblasts; test: Alamar Blue viability / proliferation assay under hypoxia; type: cell-based; conditions: for cell proliferation vs untreated controls: various concentrations
# Procedure: In order to mimic the hypoxic micro-environment, primary rat fibroblasts were exposed to hypoxia. Cells were exposed to 2 separate conditions—continuous and episodic hypoxia. For continuous hypoxia, cells were incubated in a hypoxic chamber (2% 02) for 48 h and treated with or without L-alanyl-L-glutamine and no restoration to normoxia as shown in FIG. 1C. Cells were collected and processed for experiments subsequently. For episodic hypoxia, cells were incubated in a hypoxic chamber (2% 02) for 2 h followed by restoration to normoxia for 48 h at which time cells were treated with or without L-alanyl-L-glutamine, as shown by FIG. 1C. Cells were collected after 48 h and processed for experiments subsequently. Proliferation of primary fibroblasts were determined by alamar blue assay (Invitrogen). Briefly, cells were plated in a 96-well plate treated with or without L-alanyl-L-glutamine under aforementioned hypoxic conditions for 48 h. The interaction of alamar blue with the cells was analyzed for 4 h by measuring fluorescence readings at 540 nm and 585 nm respectively. Proliferation was also detected using flow cytometry based EdU assay using EdU-Click 488 (baseclick).
# [4] = test system: hypoxic primary rat fibroblasts; test: Western blotting of whole cell lysates for HIF1-α signaling and pro-fibrotic proteins; type: cell-based
# Procedure: In order to mimic the hypoxic micro-environment, primary rat fibroblasts were exposed to hypoxia. Cells were exposed to 2 separate conditions—continuous and episodic hypoxia. For continuous hypoxia, cells were incubated in a hypoxic chamber (2% 02) for 48 h and treated with or without L-alanyl-L-glutamine and no restoration to normoxia as shown in FIG. 1C. Cells were collected and processed for experiments subsequently. For episodic hypoxia, cells were incubated in a hypoxic chamber (2% 02) for 2 h followed by restoration to normoxia for 48 h at which time cells were treated with or without L-alanyl-L-glutamine, as shown by FIG. 1C. Cells were collected after 48 h and processed for experiments subsequently. Protein samples were prepared by resuspending cells growing in 6-well plates in RIPA lysis and extraction buffer (Thermo) containing protease and phosphatase inhibitors (Roche). Protein concentrations were quantified using protein assay dye reagent (Bio-Rad). Samples were mixed with 4× LDS Sample buffer (Thermo) and denatured by boiling at 95° C. for 6 minutes. Following protein concentration estimations, equal protein samples containing 25 μg total protein were loaded and resolved in 4-15% Mini protean TGX gels (Bio-Rad). Fractionated proteins were transferred to 0.2 μm nitrocellulose membranes using Trans-Blot® Turbo™ Transfer System (Bio-Rad). Membranes were blocked with 5% Non-Fat dry milk and incubated overnight with primary antibodies. The following primary antibodies along with their respective concentrations were used during overnight incubation. Anti-collagen I (1:500; ab34710) and anti-collagen IV (1:500; ab6586) were purchased from Abcam. Anti-heat shock protein 47 (HSP-47) (1:400; sc-13150) and anti-fibronectin (1:500; sc-8422) were ordered from Santa Cruz Biotechnology. Other antibodies including anti-SMAD 2/3 (1:500; 85865S), anti-GAPDH (1:5000; 97166S) and anti-HIF-1α (1:750; 14179S) were from Cell Signaling Technology. Horseradish peroxidase-conjugated secondary antibodies at a concentration of 1:5000 were used for immunoreactivity and detection of protein bands were does using Pierce™ ECL Plus Western Blotting Substrate (Thermo) and on the ChemiDoc Imaging Systems (Bio-Rad).
# [5] = test system: hypoxic primary rat fibroblasts; test: Immunofluorescence of HIF1-α signaling and pro-fibrotic proteins; type: cell-based
# Procedure: as §1
# For episodic hypoxia, cells were incubated in a hypoxic chamber (2% 02) for 2 h followed by restoration to normoxia for 48 h at which time cells were treated with or without L-alanyl-L-glutamine, as shown by FIG. 1C. Cells were collected after 48 h and processed for experiments subsequently.
# For immunofluorescence microscopy, cells were grown on 4-well chamber slides (IBIDI) under appropriate hypoxic conditions with or without L-alanyl-L-glutamine treatment. Cells were washed with ice-cold PBS followed by fixation with 4% paraformaldehyde. Fixed cells were permeabilized with 0.5% Triton X-100 and incubated with blocking reagent (1% BSA in PBS) for 30 minutes, prior to overnight incubation with appropriate primary antibodies. After wash steps, cultures were labeled and incubated with secondary antibodies and 4′-6-didiamino-2-phenylindole, dihydrochloride (DAPI, Sigma) were used to stain the nuclei.
# Fluorescence microscopy image analysis was performed using NIKON Ti2 inverted microscope equipped with Photometrics Prime 95B camera for fluorescence imaging. All images were digitally processed, all quantifications and further arrangement for presentation was done using NIS-Elements Advanced Research analysis software. For quantification analysis, pictures from random fields in independent wells were taken at 10× and 40× magnification objectives and the total protein expression for each marker was determined in reference to the total number of cells based on DAPI quantification.
# For immunofluorescence, the primary antibodies along with their respective concentrations are listed below. Anti-collagen I (1:500; ab34710), anti-collagen IV (1:500; ab6586) and anti-α-SMA (1:500; ab124964) were purchased from Abcam. Anti-HSP-47 (1:250; sc-13150), anti-fibronectin (1:250; sc-8422), and anti-HIF-1α (1:500; sc-13515) were ordered from Santa Cruz Biotechnology. Anti-SMAD 2/3 (1:500; 85865S) was purchased from Cell Signaling Technology. In addition to this, the following secondary antibodies: Goat anti-mouse Alexa Fluor (AF) 488 (A11029), goat anti-mouse AF546 (A11030), goat anti-rabbit AF488 (A11034) and goat anti-rabbit AF546 (A11010) from Life Technologies. DAPI (D9564) from Sigma was used at a concentration of 1:1000.
# [6] = continuous hypoxia 48 h, 1 mM, 10 mM and 100 mM, dose-dependent
# [7] = continuous hypoxia 48 h, various concentrations
# [8] = episodic hypoxia 2 h, then treatment 48 h
smiles,measurement,setting,value
NC(=O)CC[C@H](N)C(=O)O [L-glutamine],water solubility,[1],about 40 g/L
C[C@H](N)C(=O)N[C@@H](CCC(N)=O)C(=O)O [L-alanyl-L-glutamine] (H-Ala-Gln-OH),"pro-fibrotic factors Fndel, Fndc3b, Col1a1, Akt1s1 and Pxn (phosphoproteome)",[2],significantly downregulated
same,viability and cell proliferation,"[3]; Alamar Blue, 48 h, hypoxic, 1 mM, 10 mM and 100 mM",does not affect the viability and cell proliferation
same,cell proliferation vs untreated controls,[3]; continuous (48 h) hypoxia,no change in cell proliferation
same,cell proliferation vs untreated controls,[3]; episodic (2 h) hypoxia,no change in cell proliferation
same,HSP47 expression (western blot),[4]; continuous hypoxia 48 h,reduces expression of HSP47 but we did not observe a significant downregulation
same,HIF1-α expression (western blot),"[4]; continuous hypoxia 48 h, 1 mM, 10 mM and 100 mM",significantly down regulated
same,Collagen-I expression (western blot),[4]; [6],significantly reduced
same,Collagen-IV expression (western blot),[4]; [6],significantly reduced
same,Fibronectin expression (western blot),[4]; [6],significantly reduced
same,SMAD 2/3 expression (western blot),"[4]; continuous hypoxia 48 h, 100 mM only",significantly downregulated
same,COL-IV expression (western blot),"[4]; episodic hypoxia, 1 mM",significant downregulation
same,HIF1-α signaling factors and pro-fibrosis mechanistic targets (western blot),"[4]; episodic hypoxia, across the various concentrations",not any significant downregulation
same,Collagen-I expression (immunofluorescence),[5]; [7],significantly reduced in a non-dose dependent manner
same,Collagen-IV expression (immunofluorescence),[5]; [7],dose-dependent downregulation
same,Fibronectin expression (immunofluorescence),[5]; [7],significantly reduced in a non-dose dependent manner
same,HIF1-α expression (immunofluorescence),[5]; [7],significant reduction; also recorded: dose-dependent downregulation
same,HSP47 expression (immunofluorescence),[5]; [7],dose-dependent downregulation
same,SMAD 2/3 expression (immunofluorescence),[5]; [7],significant reduction; also recorded: dose-dependent downregulation
same,Collagen-I expression (immunofluorescence),[5]; [8],"significantly reduced at 1 mM L-alanyl-L-glutamine, but remained constant thereafter"
same,Collagen-IV expression (immunofluorescence),[5]; [8],effectively reduces expression
same,Fibronectin expression (immunofluorescence),[5]; [8],effectively reduces expression
same,HIF1-α expression (immunofluorescence),[5]; [8],significant downregulation
same,HSP47 expression (immunofluorescence),[5]; [8],effectively reduces expression
same,SMAD 2/3 expression (immunofluorescence),[5]; [8],significant downregulation
